Source: PubChem BioAssay (NCI)
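How tested: cells in 96-well plates exposed to compound for 48 hours at five concentrations. GI50 marks 50% less growth. TGI marks complete inhibition of growth.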

What was measured:
Experiment in all cases: inhibition of tumour cell growth, NCI panel, 48 h
[1] = system: HOP-92 NSCLC
[2] = system: HT29 colon
[3] = system: MDA-MB-231 breast
[4] = system: MDA-MB-435
[5] = system: NCI-H226 lung
[6] = system: NCI-H460 lung
[7] = system: OVCAR-3 ovarian
[8] = system: SK-MEL-2 melanoma
[9] = system: SN12C renal
[10] = system: SNB-75 CNS

Structure (SMILES) | GI50 [1] | TGI [1] | GI50 [2] | TGI [2] | GI50 [3] | TGI [3] | GI50 [4] | TGI [4] | GI50 [5] | TGI [5] | GI50 [6] | TGI [6] | GI50 [7] | TGI [7] | GI50 [8] | TGI [8] | GI50 [9] | TGI [9] | GI50 [10] | TGI [10]
COc1cccc(/C=N/NC(=O)c2ccccc2Nc2ccnc(C(F)(F)F)c2)c1O | 0.342 µM | 21.5 µM | 4.06 µM | > 100 µM | 0.423 µM | > 100 µM | 1.26 µM | > 100 µM | 0.571 µM | 36.5 µM | 0.262 µM | 8.26 µM | 0.169 µM | 43.9 µM | 2.13 µM | > 44 µM | 0.783 µM | > 73.7 µM | 1.62 µM | > 76.5 µM
O=C(O)CCCCC(CCSCc1ccccc1)SCc1ccccc1 (stereo not given) | 29.3 µM | > 81.6 µM | 65.3 µM | > 100 µM | > 66.9 µM | > 100 µM | > 73.7 µM | > 100 µM | > 71 µM | > 100 µM | 33.4 µM | > 100 µM | 37.9 µM | > 69.9 µM | 27.5 µM | 67.6 µM | 41.4 µM | > 100 µM | > 100 µM | > 100 µM
Cc1ccc2c(c1)C(=O)/C(=C/c1ncc([N+](=O)[O-])n1C)O2 | 2.24 µM | > 19.8 µM | 0.491 µM | 3.36 µM | 1.56 µM | 6.92 µM | 0.371 µM | 1.88 µM | 4.62 µM | 17.4 µM | 2.05 µM | 5.97 µM | 2.53 µM | 6.55 µM | 1.88 µM | 3.54 µM | 1.77 µM | 6.55 µM | 3.14 µM | 22.8 µM
O=C1c2c(c3c4ccccc4n(CCCCCCBr)c3c3[nH]c4ccccc4c23)C(=O)N1O | 2.22 µM | 6.7 µM | 1.73 µM | 3.25 µM | 2.9 µM | 9.52 µM | 1.98 µM | 4.97 µM | 3.7 µM | 16.4 µM | 3.35 µM | 11.8 µM | 3.06 µM | 13 µM | 2.09 µM | 5.27 µM | 3.68 µM | 12.8 µM | 3.14 µM | 16.5 µM
COc1cnc2cc(C(=O)O)c3c([N+](=O)[O-])cccc3c2c1 |  | > 100 µM |  | > 100 µM |  | > 100 µM |  | > 100 µM |  | > 100 µM |  | > 100 µM |  | > 100 µM |  | > 100 µM |  | > 100 µM |  | > 100 µM
O=c1oc2ccc(F)cc2c(=O)n1-c1ccc(F)cc1F | 1.6 µM | 4.68 µM | 3.91 µM | 49.8 µM | 2.3 µM | 6.99 µM | 3.21 µM | 14.6 µM | 2.82 µM | 72.9 µM | 3.42 µM | 62.4 µM | 3.26 µM | 27.7 µM | 1.98 µM | 5.04 µM | 2.72 µM | 13.7 µM | 1.58 µM | 5.43 µM
COc1cc(/C=C/c2cc(/C=C/c3ccc(O)c(OC)c3)n(-c3ccccc3)n2)ccc1O | 0.452 µM | 4.25 µM | 0.724 µM | 4.1 µM | 0.557 µM | 6.94 µM | 0.0415 µM | 0.191 µM | 0.382 µM | 1.83 µM |  |  | 0.266 µM | 0.938 µM | 0.266 µM | 2.03 µM | 0.313 µM | 2.2 µM |  | 
Cn1cc(-c2cnc3ccc(NC(=O)Nc4ccc(F)c(Br)c4)cc3n2)cn1 | 1.6 µM | 4.41 µM |  |  | 1.78 µM | 4.14 µM | 1.81 µM | 3.95 µM | 1.52 µM | 3.64 µM | 1.74 µM | 3.77 µM | 2 µM | 5.77 µM | 1.97 µM | 4.13 µM | 1.87 µM | 4.79 µM | 1.97 µM | 4.8 µM
CC1OC(O[C@H]2C[C@@H](O)[C@]3(CO)[C@H]4[C@H](O)C[C@]5(C)[C@@H](C6=CC(=O)OC6)CC[C@]5(O)[C@@H]4CC[C@]3(O)C2)C(O)C(O)C1O (stereo not given in full) | 24.4 µM | 57.6 µM | 19.5 µM | 36 µM | 21 µM | 40.5 µM | 19.5 µM | 38.6 µM | 22.7 µM | 52 µM | 19.1 µM | 35.4 µM | 19.8 µM | 40.7 µM | 20.2 µM | 44.8 µM | 20.6 µM | 40.6 µM |  | 
O=[N+]([O-])/C=C\c1ccc(Cl)c(Cl)c1 | 1.87 µM | 5.01 µM |  |  | 5.73 µM | 23.2 µM | 1.27 µM | 2.86 µM | 12 µM | 27.9 µM | 3.64 µM | 25.1 µM | 1.96 µM | 3.94 µM | 2.56 µM | 7.61 µM | 4.31 µM | 62.5 µM | 4.47 µM | 17.5 µM
